Tests used:
Type in all cases: cell-based
[1] = tested on: G6PD protein; test: Western blot of G6PD protein in hypoxic rat pulmonary artery smooth muscle cells; details: rat PASMC; 50 ng and 100 ng; hypoxia (1% O2) 72 hr; compared to untransfected (UT), non-targeting (NT) and G6PD-siRNA#1; FIG. 4A
Procedure: (§1) FIGS. 4A-4B are blots showing rat pulmonary artery smooth muscle cells that were cultured in 15% DMEM for 48 hr and transfected with G6PD-siRNA#1 and G6PD-siRNA#2, respectively (0.5 and 1.0 μl=50 ng and 100 ng, respectively). The cells were then subjected to hypoxia (1% 02) for 72 hr. Expression of G6PD protein was estimated using western blot analyses. UT=Untransfected; NT=non-targeting/scrambled sequence (FIG. 4A). Beta-Actin (ACTB) was used as loading control. FIG. 4B are blots showing the effect of G6PD-siRNA#2 treatment, on the expression of G6PD (FIG. 4B-panel 2), polymerase delta (FIG. 4B-panel 3), cyclin E1 (FIG. 4B-panel 4), and cyclin B (FIG. 4B-panel 5), under normoxic and hypoxic conditions, in these cells were determined using Western blot analyses. GAPDH was used as a loading control.
(§2) In FIGS. 4A-B, rat pulmonary artery smooth muscle cells were cultured in 15% DMEM for 48 hr. Cells were then transfected with G6PD-siRNA#1 and G6PD-siRNA#2, respectively (0.5 and 1.0 μl=50 ng and 100 ng, respectively) and subjected to hypoxia (1% 02) for 72 hr. […] GAPDH was used as a loading control.

[2] = tested on: polymerase delta, cyclin E1, cyclin B1; test: Western blot of replication and cell cycle proteins in rat pulmonary artery smooth muscle cells; details: rat PASMC, normoxic and hypoxic conditions
Procedure: as §1, §2

[3] = tested on: G6PD; test: G6PD knockdown by G6PD-specific siRNA sequence (preliminary results); details: based on preliminary results
Procedure: PASM cells cultured in a 12-well plate were transfected for 72 h with 100 nmol/1 shRNA targeting G6PD using lipid-based and nano-particle based transfection system. Control experiments were performed using a nontargeting/scrambled (NT) shRNA (negative control).

Substance | G6PD protein expression [1] | expression of polymerase delta ([2]; FIG. 4B-panel 3) | expression of cyclin E1 ([2]; FIG. 4B-panel 4) | expression of cyclin B1 ([2]; FIG. 4B-panel 5) | downregulation of G6PD [3]
G6PD-siRNA#2: Sense (SEQ ID NO. 6) 5′ CGACGAAGCGCAGACAGCGUC 3′; Antisense (SEQ ID NO. 7) 5′GACGCUGUCUGCGCUUCGUCG3′ (listed as RNA, chemistry not given here) | significantly down-regulated | significantly down-regulated | significantly down-regulated | significantly down-regulated | –
SEQ ID NO: 2: G6PD-specific siRNA gene sequence CAACAUCGCCUGCGUUAUC; nucleotide positions 922-940 of SEQ ID NO. 1 (expressed or natural sequence) | – | – | – | – | specifically and efficaciously downregulated G6PD

Source: patent US10246711B2, “RNAi inhibitors of glucose-6-phosphate dehydrogenase for treating cardiovascular and pulmonary conditions” (priority 2016, dated 2019)
